Measurements reported in US20260200946A1, “KRAS(G12V) INHIBITORS” (Ranok Therapeutics (Hangzhou) Co. Ltd., priority 2022, published 2026).
pEC50: −log10 of the molar value.

Test system: NCIH727 cells
Assay: Cancer cell line proliferation (CellTiter-Glo), NCI-H727
Assay type: cell-based
Conditions: NCIH727 lung carcinoid, heterozygous G12V
Experimental: Cell lines were cultured essentially according to ATCC recommendations.
SW620 and NCIH727 cells were plated in 384-well tissue culture plates at 1,000 cells/well and incubated at 37° C./5% CO2 for 72 hr in 40 μl of media. […] Each cell line was then treated with test compounds at various concentrations with a final concentration of 0.5% DMSO/well, and then incubated at 37° C./5% CO2 for 72 hr. 40 μl of CellTiter-Glo® Reagent (Promega Corporation, Madison, WI) was added to each well and processed according manufacturer's protocol. Results were analyzed and IC50 values were calculated in GraphPad 8.0 software.

SMILES	pEC50 (Homo sapiens, 72 h)	pEC50 (72 hr)
C#Cc1c(F)ccc2cc(O)cc(-c3nc(OC)c4c(N5CC6CCC(C5)N6C(=O)C[C@H](C)C#N)nc(OCC5(CN6CC7CC7C6)CC5)nc4c3F)c12 (single isomer, unassigned) [Example 178]	6.00 to 7.00	–
C#Cc1c(F)ccc2cc(O)cc(-c3nc(OC)c4c(N5CC6CCC(C5)N6C(=O)C5(F)CC5)nc(OCC5(CN6CCC(F)CC6)CC5)nc4c3F)c12 [Example 66]	6.00 to 7.00	–
C#Cc1c(F)ccc2cc(O)cc(-c3nc(OC)c4c(N5CC6CCC(C5)N6C(=O)NCC(C)(C)F)nc(OCC5(CN6CCC(F)CC6)CC5)nc4c3F)c12 [Example 67]	6.00 to 7.00	–
C#Cc1c(F)ccc2cc(O)cc(-c3nc(OC)c4c(N5CC6CCC(C5)N6C(=O)N[C@H]5C[C@H]5F)nc(OCC5(CN6CCC(F)CC6)CC5)nc4c3F)c12 [Example 68]	< 6.00	–
C#Cc1c(F)ccc2cc(O)cc(-c3nc(OC)c4c(N5CC6CCC(C5)N6C(=O)[C@H]5CC5(F)F)nc(OCC5(CN6CCC(F)CC6)CC5)nc4c3F)c12 [Example 69]	> 7.00	–
C#Cc1c(F)ccc2cc(O)cc(-c3nc(OC)c4c(N5CC6CCC(C5)N6CC5COC5)nc(OCC5(CN6CCC(F)CC6)CC5)nc4c3F)c12 [Example 70]	< 6.00	–
C#Cc1c(F)ccc2cc(O)cc(-c3nc(OC)c4c(N5CC6CCC(C5)N6C(=O)[C@@H]5CC5(F)F)nc(OCC5(CN6CCC(F)CC6)CC5)nc4c3F)c12 [Example 72]	6.00 to 7.00	–
C#Cc1c(F)ccc2cc(O)cc(-c3nc(OC)c4c(N5CC6CCC(C5)N6C(=O)N[C@@H]5C[C@H]5F)nc(OCC5(CN6CCC(F)CC6)CC5)nc4c3F)c12 [Example 73]	6.00 to 7.00	–
C#Cc1c(F)ccc2cc(O)cc(-c3nc(C#C)c4c(N5CC6CCC(C5)N6C(=O)NC(C)(C)C)nc(OCC5(CN6CCC(F)CC6)CC5)nc4c3F)c12 [Example 74]	6.00 to 7.00	–
C#Cc1c(F)ccc2cc(O)cc(-c3nc(OC)c4c(N5CC6CCC(C5)N6C(=O)NCC5(F)COC5)nc(OCC5(CN6CCC(F)CC6)CC5)nc4c3F)c12 [Example 75]	6.00 to 7.00	–
C#Cc1c(F)ccc2cc(O)cc(-c3nc(OC)c4c(N5CC6CCC(C5)N6C(=O)NCC(F)(F)CO)nc(OCC5(CN6CCC(F)CC6)CC5)nc4c3F)c12 [Example 76]	6.00 to 7.00	–
C#Cc1c(F)ccc2cc(O)cc(-c3nc(OC)c4c(N5CC6CCC(C5)N6C(=O)C5C[C@H]5F)nc(OCC5(CN6CCC(F)CC6)CC5)nc4c3F)c12 (some centres unmarked) [Example 77]	> 7.00	–
C#Cc1c(F)ccc2cc(O)cc(-c3nc(OC)c4c(N5CC6CCC(C5)N6C(=O)[C@H]5C[C@@H]5F)nc(OCC5(CN6CCC(F)CC6)CC5)nc4c3F)c12 [Example 78]	6.00 to 7.00	–
C#Cc1c(F)ccc2cc(O)cc(-c3nc(OC)c4c(N5CC6CCC(C5)N6C(=O)NC5CCC(F)(F)C5)nc(OCC5(CN6CCC(F)CC6)CC5)nc4c3F)c12 (centres unmarked) [Example 79]	6.00 to 7.00	–
C#Cc1c(F)ccc2cc(O)cc(-c3nc(OC)c4c(N5CC6CCC(C5)N6C(=O)C5C[C@H]5C#N)nc(OCC5(CN6CCC(F)CC6)CC5)nc4c3F)c12 (some centres unmarked) [Example 80]	> 7.00	–
C#Cc1c(F)ccc2cc(O)cc(-c3nc(OC)c4c(N5CC6CCC(C5)N6C(=O)N[C@H]5CCC(F)(F)C5)nc(OCC5(CN6CCC(F)CC6)CC5)nc4c3F)c12 [Example 81]	> 7.00	–
C#Cc1c(F)ccc2cc(O)cc(-c3nc(OC)c4c(N5CC6CCC(C5)N6C(=O)N[C@@H]5CCC(F)(F)C5)nc(OCC5(CN6CCC(F)CC6)CC5)nc4c3F)c12 [Example 82]	6.00 to 7.00	–
C#Cc1c(F)ccc2cc(O)cc(-c3nc(OC)c4c(N5CC6CCC(C5)N6C(=O)C5C[C@H]5C#N)nc(OCC5(CN6CCC(F)CC6)CC5)nc4c3F)c12 (some centres unmarked) [Example 83]	–	6.00 to 7.00
C#Cc1c(F)ccc2cc(O)cc(-c3nc(OC)c4c(N5CC6CCC(C5)N6C(=O)C5C[C@H]5C#N)nc(OCC5(CN6CCC(F)CC6)CC5)nc4c3F)c12 (some centres unmarked) [Example 84]	–	> 7.00
C#Cc1c(F)ccc2cc(O)cc(-c3nc(OC)c4c(N5CC6CCC(C5)N6C(=N)NCC(F)(F)F)nc(OCC5(CN6CCC(F)CC6)CC5)nc4c3F)c12 [Example 85]	< 6.00	–
C#Cc1c(F)ccc2cc(O)cc(-c3nc(OC)c4c(N5CC6CCC(C5)N6C(=O)NC5CC5(F)F)nc(OCC5(CN6CCC(F)CC6)CC5)nc4c3F)c12 (centres unmarked) [Example 86]	6.00 to 7.00	–
C#Cc1c(F)ccc2cc(O)cc(-c3nc(OC)c4c(N5CC6CCC(C5)N6C(=O)NC5CC[C@@H](F)C5)nc(OCC5(CN6CCC(F)CC6)CC5)nc4c3F)c12 (some centres unmarked) [Example 87]	6.00 to 7.00	–
C#CCNC(=O)N1C2CCC1CN(c1nc(OCC3(CN4CCC(F)CC4)CC3)nc3c(F)c(-c4cc(O)cc5ccc(F)c(C#C)c45)nc(OC)c13)C2 [Example 88]	> 7.00	–
C#Cc1c(F)ccc2cc(O)cc(-c3nc(OC)c4c(N5CC6CCC(C5)N6C(=O)NC5CCC5)nc(OCC5(CN6CCC(F)CC6)CC5)nc4c3F)c12 [Example 89]	> 7.00	–
C#Cc1c(F)ccc2cc(O)cc(-c3nc(OC)c4c(N5CC6CCC(C5)N6C(=O)Nc5cc(F)cc(F)c5)nc(OCC5(CN6CCC(F)CC6)CC5)nc4c3F)c12 [Example 90]	6.00 to 7.00	–

SMILES	pEC50 (Homo sapiens, 72 h)	pEC50 (72 hr)
C#Cc1c(F)ccc2cc(O)cc(-c3nc(OC)c4c(N5CC6CCC(C5)N6C(=O)NC5CC(F)C5)nc(OCC5(CN6CCC(F)CC6)CC5)nc4c3F)c12 (centres unmarked) [Example 91]	> 7.00	–
C#Cc1c(F)ccc2cc(O)cc(-c3nc(OC)c4c(N5CC6CCC(C5)N6C(=O)NC5CC(F)C5)nc(OCC5(CN6CCC(F)CC6)CC5)nc4c3F)c12 (centres unmarked) [Example 92]	–	6.00 to 7.00
C#Cc1c(F)ccc2cc(O)cc(-c3nc(OC)c4c(N5CC6CCC(C5)N6C(=O)NC(C)C#N)nc(OCC5(CN6CCC(=C)CC6)CC5)nc4c3F)c12 (centres unmarked) [Example 93]	> 7.00	–
C#Cc1c(F)ccc2cc(O)cc(-c3nc(C#C)c4c(N5CC6CCC(C5)N6C(=O)C5CC5(F)F)nc(OCC5(CN6CCC(F)CC6)CC5)nc4c3F)c12 (centres unmarked) [Example 94]	6.00 to 7.00	–
C#Cc1c(F)ccc2cc(O)cc(-c3nc(C#C)c4c(N5CC6CCC(C5)N6C(=O)NC5CC5)nc(OCC5(CN6CCC(F)CC6)CC5)nc4c3F)c12 [Example 95]	6.00 to 7.00	–
C#CCNC(=O)N1C2CCC1CN(c1nc(OCC3(CN4CCC(F)CC4)CC3)nc3c(F)c(-c4cc(O)cc5ccc(F)c(C#C)c45)nc(C#C)c13)C2 [Example 96]	6.00 to 7.00	–
C#Cc1c(F)ccc2cc(O)cc(-c3nc(OC)c4c(N5CC6CCC(C5)N6C(=O)Nc5ccc6c(c5)CCO6)nc(OCC5(CN6CCC(F)CC6)CC5)nc4c3F)c12 [Example 97]	6.00 to 7.00	–
C#Cc1c(F)ccc2cc(O)cc(-c3nc(C#C)c4c(N5CC6CCC(C5)N6C(=O)NCC(F)(F)F)nc(OCC5(CN6CCC(F)CC6)CC5)nc4c3F)c12 [Example 100]	6.00 to 7.00	–
C#Cc1c(F)ccc2cc(O)cc(-c3nc(OC)c4c(N5CC6CCC(C5)N6C(=O)[C@H]5CC5(F)F)nc(OCC5(CN6CC7CC7C6)CC5)nc4c3F)c12 (some centres unmarked) [Example 102]	> 7.00	–
C#Cc1c(F)ccc2cc(O)cc(-c3nc(C#C)c4c(N5CC6CCC(C5)N6C(=O)CCC#N)nc(OCC5(CN6CCC(F)CC6)CC5)nc4c3F)c12 [Example 103]	6.00 to 7.00	–
C#Cc1c(F)ccc2cc(O)cc(-c3nc(OC)c4c(N5CC6CCC(C5)N6C(=O)COC)nc(OCC5(CN6CC7CC7C6)CC5)nc4c3F)c12 (centres unmarked) [Example 106]	6.00 to 7.00	–
C#Cc1c(F)ccc2cc(O)cc(-c3nc(OC)c4c(N5CC6CCC(C5)N6C(=O)CCN(C)C)nc(OCC5(CN6CC7CC7C6)CC5)nc4c3F)c12 (centres unmarked) [Example 107]	< 6.00	–
C#Cc1c(F)ccc2cc(O)cc(-c3nc(OC)c4c(N5CC6CCC(C5)N6C(=O)CCOC)nc(OCC5(CN6CC7CC7C6)CC5)nc4c3F)c12 (centres unmarked) [Example 108]	6.00 to 7.00	–
C#Cc1c(F)ccc2cc(O)cc(-c3nc(OC)c4c(N5CC6CCC(C5)N6C(=O)N(C)CC#N)nc(OCC5(CN6CC7CC7C6)CC5)nc4c3F)c12 (centres unmarked) [Example 110]	< 6.00	–
C#Cc1c(F)ccc2cc(O)cc(-c3nc(OC)c4c(N5CC6CCC(C5)N6C(=O)OC(C)(C)C#N)nc(OCC5(CN6CC7CC7C6)CC5)nc4c3F)c12 (centres unmarked) [Example 111]	> 7.00	–
C#Cc1c(F)ccc2cc(O)cc(-c3nc(OC)c4c(N5CC6CCC(C5)N6C(=O)C(C#N)C(C)(C)C)nc(OCC5(CN6CC7CC7C6)CC5)nc4c3F)c12 (centres unmarked) [Example 112]	< 6.00	–
C#Cc1c(F)ccc2cc(O)cc(-c3nc(OC)c4c(N5CC6CCC(C5)N6C(=O)CCCC#N)nc(OCC5(CN6CC7CC7C6)CC5)nc4c3F)c12 (centres unmarked) [Example 113]	6.00 to 7.00	–
C#Cc1c(F)ccc2cc(O)cc(-c3nc(OC)c4c(N5CC6CCC(C5)N6C(=O)C5(C)CC5)nc(OCC5(CN6CC7CC7C6)CC5)nc4c3F)c12 (centres unmarked) [Example 114]	< 6.00	–
C#Cc1c(F)ccc2cc(O)cc(-c3nc(OC)c4c(N5CC6CCC(C5)N6C(=O)C5(C#N)CC5)nc(OCC5(CN6CC7CC7C6)CC5)nc4c3F)c12 (centres unmarked) [Example 115]	6.00 to 7.00	–
C#Cc1c(F)ccc2cc(O)cc(-c3nc(OC)c4c(N5CC6CCC(C5)N6C(=O)C5(C(F)(F)F)CC5)nc(OCC5(CN6CC7CC7C6)CC5)nc4c3F)c12 (centres unmarked) [Example 116]	< 6.00	–
C#Cc1c(F)ccc2cc(O)cc(-c3nc(OC)c4c(N5CCN(C(=O)CC#N)[C@@H](CC#N)C5)nc(OCC5(CN6CC7CC7C6)CC5)nc4c3F)c12 (some centres unmarked) [Example 117]	< 6.00	–
C#Cc1c(F)ccc2cc(O)cc(-c3nc(OC)c4c(N5CC6CCC(C5)N6C(C)=O)nc(OCC5(CN6CC7CC7C6)CC5)nc4c3F)c12 (centres unmarked) [Example 120]	6.00 to 7.00	–
C#Cc1c(F)ccc2cc(O)cc(-c3nc(OC)c4c(N5CC6CCC(C5)N6C(C)C)nc(OCC5(CN6CC7CC7C6)CC5)nc4c3F)c12 (centres unmarked) [Example 121]	< 6.00	–
C#Cc1c(F)ccc2cc(O)cc(-c3nc(OC)c4c(N5CC6CCC(C5)N6C(=O)CC(C)=O)nc(OCC5(CN6CC7CC7C6)CC5)nc4c3F)c12 (centres unmarked) [Example 122]	6.00 to 7.00	–
C#Cc1c(F)ccc2cc(O)cc(-c3nc(OC)c4c(N5CC6CCC(C5)N6C(=O)C(C)C#N)nc(OCC5(CN6CC7CC7C6)CC5)nc4c3F)c12 (centres unmarked) [Example 123]	6.00 to 7.00	–
